Test results reported in PubChem BioAssay AID2060900 (Molecular Pharmacology Branch, DTP, NCI, 2025).

System: 521955-158-R2-J5-PDC complex spheroids, viability
Experiment: Anticancer human tumor 521955-158-R2-J5-PDC patient-derived pancreatic carcinoma cell line growth inhibition [RAS]
Settings: for IC50: curve of first compound; for viability, T/C: stronger effect = lower value
Outline: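 Multi-cell-type spheroids: tumor cells plus HUVEC endothelial cells and mesenchymal stem cells. RAS-pathway inhibitors were combined with targeted agents, each dosed in half-log steps down from clinical Cmax, or from 10 microM when Cmax was unknown.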
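Further: compound exposure lasted seven days before the viability read.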
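Wherever viability, T/C is given: spheroids also contain HUVEC endothelial cells and mesenchymal stem cells as stroma.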

Structure (SMILES): Cc1nc(N2CCC3(CC2)COC(C)C3N)c(CO)nc1Sc1ccnc(N)c1Cl (centres undefined) + CCn1c(-c2cccnc2C(C)OC)c2c3cc(ccc31)N1CCOC(CC(NC(=O)C(C(C)C)N(C)C(=O)C3(F)CCN(C(=O)C#CC(C)(C)N(C)C)CC3)C(=O)N3CCCC(N3)C(=O)OCC(C)(C)C2)C1
- IC50 (second compound 0.000949 µM): > 10000 nM
- IC50 (second compound 0.003 µM): 5110 nM
- IC50 (second compound 0.00949 µM): 3120 nM
- IC50 (second compound 0.03 µM): 1190 nM
- IC50 (second compound 0.0949 µM): 4390 nM
- IC50 (second compound 0.3 µM): 546 nM
- viability, T/C (second compound 0.000949 µM, first compound 0.0316 µM): 72.8%
- viability, T/C (second compound 0.000949 µM, first compound 0.1 µM): 64%
- viability, T/C (second compound 0.000949 µM, first compound 0.316 µM): 50.8%
- viability, T/C (second compound 0.000949 µM, first compound 1 µM): 59.4%
- viability, T/C (second compound 0.000949 µM, first compound 3.16 µM): 52.6%
- viability, T/C (second compound 0.000949 µM, first compound 10 µM): 50.8%
- viability, T/C (second compound 0.003 µM, first compound 0.0316 µM): 74.3%
- viability, T/C (second compound 0.003 µM, first compound 0.1 µM): 61.3%
- viability, T/C (second compound 0.003 µM, first compound 0.316 µM): 73.6%
- viability, T/C (second compound 0.003 µM, first compound 1 µM): 61.4%
- viability, T/C (second compound 0.003 µM, first compound 3.16 µM): 49.4%
- viability, T/C (second compound 0.003 µM, first compound 10 µM): 46.4%
- viability, T/C (second compound 0.00949 µM, first compound 0.0316 µM): 75.7%
- viability, T/C (second compound 0.00949 µM, first compound 0.1 µM): 61.8%
- viability, T/C (second compound 0.00949 µM, first compound 0.316 µM): 61.6%
- viability, T/C (second compound 0.00949 µM, first compound 1 µM): 50.4%
- viability, T/C (second compound 0.00949 µM, first compound 3.16 µM): 50.1%
- viability, T/C (second compound 0.00949 µM, first compound 10 µM): 48.4%
- viability, T/C (second compound 0.03 µM, first compound 0.0316 µM): 83%
- viability, T/C (second compound 0.03 µM, first compound 0.1 µM): 64.4%
- viability, T/C (second compound 0.03 µM, first compound 0.316 µM): 54.2%
- viability, T/C (second compound 0.03 µM, first compound 1 µM): 49.2%
- viability, T/C (second compound 0.03 µM, first compound 3.16 µM): 50.8%
- viability, T/C (second compound 0.03 µM, first compound 10 µM): 47%
- viability, T/C (second compound 0.0949 µM, first compound 0.0316 µM): 68%
- viability, T/C (second compound 0.0949 µM, first compound 0.1 µM): 66.3%
- viability, T/C (second compound 0.0949 µM, first compound 0.316 µM): 55.8%
- viability, T/C (second compound 0.0949 µM, first compound 1 µM): 54.1%
- viability, T/C (second compound 0.0949 µM, first compound 3.16 µM): 55%
- viability, T/C (second compound 0.0949 µM, first compound 10 µM): 45.6%
- viability, T/C (second compound 0.3 µM, first compound 0.0316 µM): 59.1%
- viability, T/C (second compound 0.3 µM, first compound 0.1 µM): 46.3%
- viability, T/C (second compound 0.3 µM, first compound 0.316 µM): 53.9%
- viability, T/C (second compound 0.3 µM, first compound 1 µM): 51.6%
- viability, T/C (second compound 0.3 µM, first compound 3.16 µM): 45.4%
- viability, T/C (second compound 0.3 µM, first compound 10 µM): 42.8%

Structure (SMILES): O=C(c1ccc(F)c(F)c1Nc1ccc(I)cc1F)N1CC(O)([C@@H]2CCCCN2)C1 + C#Cc1c(F)ccc2cc(O)cc(-c3ncc4c(N5CC6CCC(C5)N6)nc(OCC56CCCN5CC(F)C6)nc4c3F)c12
- IC50 (second compound 0.0316 µM): 13.9 nM
- IC50 (second compound 0.1 µM): 9.71 nM
- IC50 (second compound 0.316 µM): 5.09 nM
- IC50 (second compound 1 µM): < 3.16 nM
- IC50 (second compound 3.16 µM): < 3.16 nM
- IC50 (second compound 10 µM): < 3.16 nM
- viability, T/C (second compound 0.0316 µM, first compound 0.00316 µM): 57.3%
- viability, T/C (second compound 0.0316 µM, first compound 0.01 µM): 53%
- viability, T/C (second compound 0.0316 µM, first compound 0.0316 µM): 43.3%
- viability, T/C (second compound 0.0316 µM, first compound 0.1 µM): 35.2%
- viability, T/C (second compound 0.0316 µM, first compound 0.316 µM): 23.4%
- viability, T/C (second compound 0.0316 µM, first compound 1 µM): 15.4%
- viability, T/C (second compound 0.1 µM, first compound 0.00316 µM): 54.5%
- viability, T/C (second compound 0.1 µM, first compound 0.01 µM): 54.2%
- viability, T/C (second compound 0.1 µM, first compound 0.0316 µM): 34.3%
- viability, T/C (second compound 0.1 µM, first compound 0.1 µM): 29.3%
- viability, T/C (second compound 0.1 µM, first compound 0.316 µM): 20.1%
- viability, T/C (second compound 0.1 µM, first compound 1 µM): 15%
- viability, T/C (second compound 0.316 µM, first compound 0.00316 µM): 51.5%
- viability, T/C (second compound 0.316 µM, first compound 0.01 µM): 47.6%
- viability, T/C (second compound 0.316 µM, first compound 0.0316 µM): 38.4%
- viability, T/C (second compound 0.316 µM, first compound 0.1 µM): 36%
- viability, T/C (second compound 0.316 µM, first compound 0.316 µM): 19.1%
- viability, T/C (second compound 0.316 µM, first compound 1 µM): 17%
- viability, T/C (second compound 1 µM, first compound 0.00316 µM): 44.6%
- viability, T/C (second compound 1 µM, first compound 0.01 µM): 43%
- viability, T/C (second compound 1 µM, first compound 0.0316 µM): 38.6%
- viability, T/C (second compound 1 µM, first compound 0.1 µM): 23.2%
- viability, T/C (second compound 1 µM, first compound 0.316 µM): 14.4%
- viability, T/C (second compound 1 µM, first compound 1 µM): 12.4%
- viability, T/C (second compound 3.16 µM, first compound 0.00316 µM): 43.9%
- viability, T/C (second compound 3.16 µM, first compound 0.01 µM): 41.9%
- viability, T/C (second compound 3.16 µM, first compound 0.0316 µM): 27%
- viability, T/C (second compound 3.16 µM, first compound 0.1 µM): 18.4%
- viability, T/C (second compound 3.16 µM, first compound 0.316 µM): 10.9%
- viability, T/C (second compound 3.16 µM, first compound 1 µM): 7.26%
- viability, T/C (second compound 10 µM, first compound 0.00316 µM): 41.3%
- viability, T/C (second compound 10 µM, first compound 0.01 µM): 29.1%
- viability, T/C (second compound 10 µM, first compound 0.0316 µM): 27.2%
- viability, T/C (second compound 10 µM, first compound 0.1 µM): 15.3%
- viability, T/C (second compound 10 µM, first compound 0.316 µM): 2.76%
- viability, T/C (second compound 10 µM, first compound 1 µM): 2.89%
